Residues, ends and D or L forms follow the SMILES beside them.
Columns and labels:
[1] = target: T1, integrin αvβ3-vitronectin interaction (Homo sapiens, UniProt P05106+P06756); experiment: Competitive inhibition of integrin αvβ3-vitronectin interaction on integrin microarray (ProteoChip); type: binding; conditions: for IC50: half-maximal inhibition concentration relative to control without peptides, ND means no activity was detected; for inhibition of integrin αvβ3-vitronectin interaction (relative fluorescence intensity): vitronectin 100 ng/ml labeled with Cy-3, colour scale white highest, blue lowest
T1 construct: purchased Chemicon International, Inc. (CA, USA)
Source text: ProteoChip™ (Proteogen, Inc., Seoul, South Korea) was used as a protein chip and integrins were spotted on the ProteoChip™ (Proteogen, Inc., Seoul, South Korea) with the microarrayer (CM-1000; Proteogen, Inc., Seoul, South Korea) to fabricate integrin receptor microarray (See Lee, Y. S. et al.: ProteoChip: a highly sensitive protein microarray proposed by a novel method of protein immobilization for application of protein-protein interaction studies, Proteomics 2003; 3: 2289-2304). Integrin α11bβ3 was purified to homogeneity by GRGDSPK-Sepharose column chromatography from the platelet (See Kang I. C. and Kim D. S., Analysis of potent glycoprotein IIb-IIIa antagonist from natural sources. J Biochem Mol Biol 1998; 31: 515-518), and Integrin αvβ3 was commercially obtained from Chemicon International, Inc. (CA, USA).
Integrins (40 μg/mL) diluted with a phosphate-buffered saline (PBS) solution containing 10 mM β-octylthioglucopyranoside, 1.0 mM CaCl2, 11.0 mM MgCl2, and 30% glycerol were spotted and incubated at 37° C. for 3 hours, and then the remaining integrins after binding were washed with 0.5% PBST (PBS containing 0.5% Tween-20). The prepared integrin microarray was stored at 4° C. until before use. This integrin microarray (integrin-binding protein chip) was used for high-throughput screening of integrin receptor antagonist (See FIG. 1).
Mixtures of ligand protein (vitronectin 100 ng/ml) labeled with fluorescence (Cy-3) and known integrin antagonists such as disintegrins (echistatin 250 μg/ml, flavoridin 250 μg/ml, kistrin 250 μg/ml, and salmosin 2.6 ng/ml), a monoclonal antibody (mAb) against integrin 11.0 mg/ml, and various concentrations of synthetic RGD peptides (echistatin, flavoridin, kistrin: Sigma-Aldrich, USA; Salmosin: isolated and purified from recombinant E. Coli; monoclonal antibody against integrin: Chemicon International, Inc., USA; synthetic ROD peptides: synthesized in the Korea Research Institute of Bioscience and Biotechnology, South Korea) were dropped on the integrin receptor of the integrin αvβ3-binding protein chip prepared in Example 1 by using micropipette or microarrayer (CM-1000; Proteogen, Inc., Seoul, South Korea) and then were reacted in a oven of 37° C. and over 75% humidity for 4-12 hours. After reaction, those were washed for about 10 minutes with 0.5% PBST containing 3% BSA. Competitive inhibitory abilities of antagonists were measured by analyzing the degree of ligand binding as relative fluorescence intensity with a fluorescence scanner.
Antagonists used in FIG. 4 are already known as antagonistic material of integrin αvβ3-vitronectin. This is also a result analyzing whether mixing antagonists and vitronectin labeled with fluorescence inhibit or not the interaction between integrin αvβ3 and vitronectin. Control are the group having only vitronectin labeled with fluorescence without antagonists and the other groups are the results performed with antagonists and peptides including the amino acid sequence of RGE. The fluorescence intensity in FIG. 4 is expressed as rainbow colors like the explanation of FIG. 3. […] However, in case of groups having antagonists, antagonists inhibited the interaction between integrin αvβ3 and vitronectin, that is, integrin αvβ3 didn't bind to vitronectin, which made the color of fluorescence blue, the lowest color.
Mixtures of ligand protein (Fibrinogen 100 ng/ml and vitronectin 100 ng/ml) labeled with fluorescence (Cy-3) and 114 peptide pools from peptide library were dropped on the integrin receptor of integrin αvβ3-binding protein chip prepared in Example 1 by using micropipette or microarrayer (CM-1000; Proteogen, Inc., Seoul, South Korea) and then were reacted in oven of 37° C. and over 75% humidity for 4-12 hours. After reaction, those were washed for about 10 minutes with 0.5% PBST containing 3% BSA. […]

[2] = test system: human umverical vein endothelial cell (HUVEC); experiment: HUVEC migration assay (Boyden chamber, bFGF chemoattractant); type: cell-based; conditions: bFGF-induced, 4 hours at 37° C., FIG. 9
Procedure: HUVE cell was cultured in M199 medium containing 10% fetal calf serum and 3 ng/ml bFGF. This cell was cultured in the control medium (M199 containing 0.1% BSA) for 16 hours to be used in migration assay, and then 3×10^4 cells were added to upper chamber of porous membrane coated with gelatin (40 μM) and inserted in Boyden chamber. Samples were treated at the same time in a concentration-dependent manner. Chemoattractant, bFGF, was added in the bottom chamber to induce HUVE cell to migrate into lower chamber. The chamber was incubated for 4 hours at 37° C. and then the membrane was removed. After fixation, cell was stained with crystal violet and cells migrating across the membrane were counted with a microscope.

[3] = test system: Lewis lung carcinomas cells; experiment: Growth inhibition assay of subcutaneous solid tumor; type: in vivo, C57BL/6 mice; conditions: 100 mg/kg mouse, subcutaneous injection once daily, FIGS. 11-13
Procedure: Lewis lung carcinomas cells (1×10^6) were injected subcutaneously into dorsal midline of C57BL/6 mice. When tumors were 100-200 mm^3 in volume, the mice were randomized into three groups. Two groups received HGDVHK or HSDVHK (100 mg/kg mouse), respectively, in PBS via subcutaneous injection at a site distant from the tumor once daily. […] The sizes of the tumors in all groups were measured at the same time everyday. The experiments were terminated when the control mice began to die.

[4] = test system: angiogenesis in chick chorioallantoic membrane; experiment: Inhibition assay of angiogenesis in a chick chorioallantoic membrane; type: in vivo; conditions: in the presence of bFGF, FIG. 10
Procedure: FIG. 10 is the result of analyzing effects of antagonistic peptides of integrin αvβ3 on angiogenesis in a chick chorioallantoic membrane. In vivo angiogenesis inhibition test was performed as one of biological characterization researches of the antagonistic peptides. A, positive control, is the result of the group treated with only bFGF without peptide; B, negative control, is the result of the group having only cells without bFGF; C is the result of the group treated with GRGDSP peptide in the presence of bFGF; D is the result of the group treated with HGDVHK peptide in the presence of bFGF; E is the result of the group treated with HSDVHK peptide in the presence of bFGF; and F is the result of the group treated with HHDVHK peptide in the presence of bFGF.
Fertilized eggs was purchased from Pulmuone Corp. (South Korea), Thermanox coverslips for sample loading was purchased from Nunc Company (USA), and 10% Intralipose (fat emulsion) for observation and syringes were purchased from Green Cross Company (South Korea).
On day 1 (0-day embryo): Fertilized egg was incubated in a incubator of 37-38° C. and over 90% humidity. The temperature and humidity were often checked to make sure the above conditions.
On day 3 (2-day embryo): The peaked end of fertilized egg was cracked with a knife. […] The pore was sealed with transparent tape to block infection and dryness of the fertilized egg. The egg was incubated again with the direction of pore toward the bottom.
On day 4 (3-day embryo): The window which diameter is 2-3 cm was made in the direction of air sac of fertilized egg (in the opposite direction of the above syringe pore) and the eggs confirmed as fertilized egg were sealed with broad transparent tape and incubated again. For reference, round window was made as follows. A round shape of scratch was made on the eggshell with a sharp knife and eggshell then was taken away with a pincette.
On day 5 (4.5-day embryo): CAM is usually created at this time and the diameter is about 2-5 mm. […]

[5] = test system: human malignant melanoma; conditions: cited from earlier work
[6] = test system: blood endothelial alpha(5) and alpha(v)-integrin; conditions: endothelial cell migration; cited from earlier work

CC(C)C[C@H](NC(=O)[C@H](CC(=O)O)NC(=O)CNC(=O)[C@@H](N)Cc1c[nH]cn1)C(=O)N[C@@H](Cc1c[nH]cn1)C(=O)N[C@@H](CCCCN)C(N)=O [HGDLHK-NH2] (H-HGDLHK-NH2; N-terminus assumed)
IC50 [1]: 0.0436 nM

CC(C)C[C@H](NC(=O)[C@H](CC(C)C)NC(=O)[C@H](Cc1c[nH]cn1)NC(=O)[C@@H](N)Cc1c[nH]cn1)C(=O)N[C@@H](Cc1c[nH]cn1)C(=O)N[C@@H](CCCCN)C(N)=O [HHLLHK-NH2] (H-HHLLHK-NH2; N-terminus assumed)
IC50 [1]: 0.00434 nM

CC(C)C[C@H](NC(=O)[C@H](CO)NC(=O)[C@@H](N)Cc1c[nH]cn1)C(=O)N[C@H](C(=O)N[C@@H](Cc1c[nH]cn1)C(=O)N[C@@H](CCCCN)C(N)=O)C(C)C [HSLVHK-NH2] (H-HSLVHK-NH2; N-terminus assumed)
IC50 [1]: 0.064 nM

CC(C)[C@H](NC(=O)[C@H](CC(=O)O)NC(=O)[C@H](CO)NC(=O)[C@@H](N)Cc1c[nH]cn1)C(=O)N[C@@H](Cc1c[nH]cn1)C(=O)N[C@@H](CCCCN)C(N)=O [HSDVHK-NH2] (H-HSDVHK-NH2; N-terminus assumed)
IC50 [1]: 0.00241 nM
inhibition of integrin αvβ3-vitronectin interaction (relative fluorescence intensity) [1]: stronger inhibitory activity in integrin αvβ3-specific inhibitory test than GRGDSP
inhibition of HUVEC migration [2]: significantly inhibited
growth of solid tumor [3]: largely suppressed
inhibitory effect on CAM angiogenesis [4]: showed different inhibitory effects

CC(C)[C@H](NC(=O)[C@H](CC(=O)O)NC(=O)CNC(=O)[C@@H](N)Cc1c[nH]cn1)C(=O)N[C@@H](Cc1c[nH]cn1)C(=O)N[C@@H](CCCCN)C(N)=O [HGDVHK-NH2] (H-HGDVHK-NH2; N-terminus assumed)
IC50 [1]: 0.0647 nM
inhibition of integrin αvβ3-vitronectin interaction (relative fluorescence intensity) [1]: stronger inhibitory activity in integrin αvβ3-specific inhibitory test than GRGDSP
inhibition of HUVEC migration [2]: significantly inhibited
inhibitory effect on CAM angiogenesis [4]: showed different inhibitory effects

CC(C)C[C@H](NC(=O)CNC(=O)[C@@H](N)Cc1c[nH]cn1)C(=O)N[C@H](C(=O)N[C@@H](Cc1c[nH]cn1)C(=O)N[C@@H](CCCCN)C(N)=O)C(C)C [HGLVHK-NH2] (H-HGLVHK-NH2; N-terminus assumed)
IC50 [1]: 0.00353 nM

HHDVHK [HHDVHK-NH2]
inhibition of integrin αvβ3-vitronectin interaction (relative fluorescence intensity) [1]: didn't reveal any inhibitory activity
inhibition of HUVEC migration [2]: had little effect
inhibitory effect on CAM angiogenesis [4]: had little effect

CC(C)[C@H]1C(=O)N[C@@H](CCCN=C(N)N)C(=O)NCC(=O)N[C@@H](CC(=O)O)C(=O)N[C@H](Cc2ccccc2)C(=O)N1C [EMD121974]
angiogenesis inhibition and cancer growth suppression in animal test [5]: activity inhibiting angiogenesis and thus suppressing cancer growth

CC(C)C[C@H](NC(=O)[C@H](Cc1c[nH]cn1)NC(=O)[C@@H](N)Cc1c[nH]cn1)C(=O)N[C@H](C(=O)N[C@@H](Cc1c[nH]cn1)C(=O)N[C@@H](CCCCN)C(N)=O)C(C)C [HHLVHK-NH2] (H-HHLVHK-NH2; N-terminus assumed)
IC50 [1]: 0.407 nM

B1: recombinant human endostatin: recombinant human endostatin interacting with endothelial alpha(5) and alpha(v)-integrin (protein, UniProt P39060 1572-1754, looked up)
Endostatin: HSHRDFQPVLHLVALNSPLSGGMRGIRGADFQCFQQARAVGLAGTFRAFLSSRLQDLYSIVRRADRAAVPIVNLKDELLFPSWEALFSGSEGPLKPGARIFSFDGKDVLRHPTWPQKSVWHGSDPNGRRLTESYCETWRTEAPSATGQASSLLGGRLLGQSAASCHHAYIVLCIENSFMTASK
modifications: Endostatin
inhibition of integrin-dependent endothelial function [6]: inhibit integrin-dependent endothelial function such as endothelial cell migration

Source: patent US7604982B2, “High-throughput screening method for intergrin antagonist and new peptide screened therefrom” (Proteogen Inc., priority 2003, dated 2009)
